12 molecules from patent US10130633B2, “Compounds” (BAYER PHARMA AKTIENGESELLSCHAFT, priority 2013, dated 2018) can be followed below.

Read-outs that look alike come from different tables or passages of the source.

Assay [1] deals with HEK293 FOP control reporter cell line. Description: HEK293 FOP control reporter assay. The class given is cell-based, human. The note with it: read-out: HEK FOP IC50. As for the experimental part: Measurement of luciferase expression was done as described for the constitutive active Wnt assay.
In a parallel approach, HEK293 cells were cotransfected with the FOP control vector and pcDNA3. The FOP vector is identical to the TOP construct, but it contains instead of functional TCF elements a randomized, non-functional sequence. For this transfection a stable transfected cell line was generated as well, based on selection with Geneticin (1 mg/ml).
A general note: A reporter such as luciferase makes a cellular process visible.

The subject of assay [2] is constitutive active colorectal cancer cell (CRC) Wnt pathway. The experiment in a line: HCT116 TOPFlash cellular reporter assay (Super TopFlash luciferase), constitutive active Wnt pathway. It is filed as cell-based. The note with it: Homo sapiens, HCT-116, 36 h, HCT116 TOP reporter cells, 36 hours incubation, luciferase expression. As for the experimental part: In order to discover and characterize small molecules which inhibit the constitutive active colorectal cancer cell (CRC) Wnt pathway, a cellular reporter assay was employed. […] Stable transfectants were generated by cotransfection with pcDNA3 and selection of stable transfected cells with 1 mg/ml G418.

In assay [3] the test system is HCT116 FOP control reporter cell line. The experiment in a line: HCT116 FOPFlash control reporter assay (FOP control vector, non-functional TCF elements). It is filed as cell-based. The note with it: Homo sapiens, HCT-116, 36 h, HCT116 FOP control reporter cells, 36 hours incubation, luciferase expression. From the text:
In a parallel approach, HCT116 cells were cotransfected with the FOP control vector and pcDNA3. The FOP vector is identical to the TOP construct, but it contains instead of functional TCF elements a randomized, non-functional sequence. For this transfection a stable transfected cell line was generated as well.

By IC50 is commonly meant the point on the concentration scale where inhibition reaches its midpoint. With `C[C@@H](C(=O)Nc1cc(C(=O)Nc2ccc(-c3ccccc3F)nc2)ccc1OC(F)(F)F)N1CCOCC1` (single isomer, unassigned) [Example 9, N-[6-(2-fluorophenyl)pyridin-3-yl]-3-{[(2S)-2-(morpholin-4-yl)propanoyl]amino}-4-(trifluoromethoxy)benzamide or N-[6-(2-fluorophenyl)pyridin-3-yl]-3-{[(2R)-2-(morpholin-4-yl)propanoyl]amino}-4-(trifluoromethoxy)benzamide], the IC50 in assay [1] (HEK293 FOP control cells, EC50 concentration of recombinant Wnt-3a, 16 hours) was found to be 8.2 µM.

For the molecule `O=C(CN1CCOCC1)Nc1cc(C(=O)Nc2ncc(-c3ccccc3)s2)ccc1OC(F)(F)F` [Example 14, 3-[(morpholin-4-ylacetyl)amino]-N-(5-phenyl-1,3-thiazol-2-yl)-4-(trifluoromethoxy)benzamide], in assay [1] (Homo sapiens, HEK293, 16 h), the IC50 was no less than 50 µM.

As for `COc1ccc(NC(=O)c2ncc(-c3ccccc3)o2)cc1NC(=O)CN1CCOCC1` [Example 20, N-{4-methoxy-3-[(morpholin-4-ylacetyl)amino]phenyl}-5-phenyl-1,3-oxazole-2-carboxamide], in assay [1] (Homo sapiens, HEK293, 16 h), the IC50 was no less than 50 µM. Same read-out and setting: for `O=C(CN1CCOCC1)Nc1cc(NC(=O)c2ccc(-c3cccc(F)c3F)nc2)ccc1OC(F)(F)F` [Example 26, 6-(2,3-difluorophenyl)-N-{3-[(morpholin-4-ylacetyl)amino]-4-(trifluoromethoxy)phenyl}nicotinamide] the value was no less than 50 µM.

For the molecule `O=C(CN1CCOCC1)Nc1cc(NC(=O)c2ccc(-c3cc(F)cc(F)c3)nc2)ccc1OC(F)(F)F` [Example 27, 6-(3,5-difluorophenyl)-N-{3-[(morpholin-4-ylacetyl)amino]-4-(trifluoromethoxy)phenyl}nicotinamide], the half-maximal inhibitory concentration (IC50) in assay [1] (Homo sapiens, HEK293, 16 h) is no less than 50 µM.

In the case of `COc1ccc(-c2ccc(C(=O)Nc3ccc(OC)c(NC(=O)CN4CCOCC4)c3)s2)cc1` [Example 35, N-{4-methoxy-3-[(morpholin-4-ylacetyl)amino]phenyl}-5-(4-methoxyphenyl)thiophene-2-carboxamide], the IC50 in assay [1] (Homo sapiens, HEK293, 16 h) was no less than 50 µM. With `O=C(Nc1nnc(-c2ccccc2)s1)c1ccc(OC(F)F)c(NC(=O)C2(N3CCOCC3)CC2)c1` [Example 37, 4-(difluoromethoxy)-3-({[1-(morpholin-4-yl)cyclopropyl]carbonyl}amino)-N-(5-phenyl-1,3,4-thiadiazol-2-yl)benzamide], the IC50 in assay [1] (Homo sapiens, HEK293, 16 h) is no less than 50 µM. On to `CN1CCN(CC(=O)Nc2cc(C(=O)Nc3nnc(-c4ccccc4C(F)(F)F)s3)ccc2OC(F)(F)F)CC1` [Example 270, 3-{[(4-methylpiperazin-1-yl)acetyl]amino}-4-(trifluoromethoxy)-N-{5-[2-(trifluoromethyl)phenyl]-1,3,4-thiadiazol-2-yl}benzamide], for which the values for the half-inhibitory concentration (IC50) in assay [2] and in assay [3] were 0.39 µM and no less than 50 µM, respectively.

As to `Cc1ccccc1-c1nnc(NC(=O)c2ccc(OC(F)(F)F)c(NC(=O)C3(N4CCN(C)CC4)CC3)c2)s1` [Example 271, N-[5-(2-methylphenyl)-1,3,4-thiadiazol-2-yl]-3-({[1-(4-methylpiperazin-1-yl)cyclopropyl]carbonyl}amino)-4-(trifluoromethoxy)benzamide], the IC50 in assay [2] is 0.48 µM; in assay [3], no less than 50 µM. On to `CN1CCN(CC(=O)Nc2cc(C(=O)Nc3nnc(-c4cccc(C(F)(F)F)c4)s3)ccc2OC(F)(F)F)CC1` [Example 272, 3-{[(4-methylpiperazin-1-yl)acetyl]amino}-4-(trifluoromethoxy)-N-{5-[3-(trifluoromethyl)phenyl]-1,3,4-thiadiazol-2-yl}benzamide], for which the values for the IC50 in assay [2] and in assay [3] were 0.545 µM and no less than 50 µM, respectively. `CC[C@H](C(=O)Nc1cc(C(=O)Nc2nnc(-c3ccccc3)s2)ccc1OC(F)(F)F)N1CCN(C)CC1` [Example 274, 3-{[(2R)-2-(4-methylpiperazin-1-yl)butanoyl]amino}-N-(5-phenyl-1,3,4-thiadiazol-2-yl)-4-(trifluoromethoxy)benzamide]: the figures for the IC50 in assay [2] and in assay [3] were 3.02 µM and no less than 50 µM, respectively. Regarding `O=C(Nc1ccc([N+](=O)[O-])cc1Cl)c1cc(Cl)ccc1O` [Ref., niclosamide, reference compound], the IC50 is 1.38 µM in assay [2] and 3.1 µM in assay [3].
